From patent US8722689B2, “Synergistic combination of flumetsulam or diclosulam with diiodomethyl-P-tolylsulfone” (Dow Global Technologies LLC, priority 2010, dated 2014)

Assays:
Type in all cases: cell-based
[1] = system: Aa + Tv + An + Pf + Ap + Ch (all fungi mixed as a single pool); test: Fungal efficacy testing, modified ASTM 5590, paint film (Diclosulam study, single pool); conditions: four weeks; for Total conc, ppm: Diclosulam:DIMTS study, concentration in paint used for SI, 30 C; for % inhibition: at the total conc given
Protocol: (§1) Sample preparation: A single or blend of biocides was post added into white acrylic latex paint free of biocides to give a maximum total active ingredient/s concentration tested. This paint was then diluted with a biocide free acrylic latex paint to give targeted concentrations for the testing. Depending on the type of biocide blends tested, the total biocides concentrations varies from 200 to 5000 ppm. After biocides addition or dilution, each sample was hand mixed for at least a minute until uniformity is achieved. Each of the paint samples as well as a control sample (containing no biocide) were used to prepare films on black plastic-vinyl chloride/acetate copolymer panels (LENETA, Mahwah, N.J.) using a 3 mil (0.0762 mm) bird bar applicator. The panels were thoroughly dried for at least 2 days avoiding direct exposure to sunlight. Square discs (0.5 inch; 1.27 cm^2) were cut out from each panel and were used as the substrate for fungal and algal efficacy tests. This sample size allowed for an agar border when the sample disc was placed into the well of the test plate. Each sample was tested in duplicate
(§2) Test conditions: The appropriate media (BOLD'S 3N for Chlorophytes, BG-11 for Cyanobacteria, and PDA for fungi) were used to support microbial growth. The test plates were maintained at room temp (25° C.-26° C.), in a cycled light-dark environment, for four weeks for algae. Plates for fungal challenge tests were maintained at 30 C for four weeks. At the end of the incubation period the samples were scored for percent area covered by visible microbial growth.
ASTM 5590 is a standard accelerated test method for determining resistance of various coatings (including paints) to fungal defacement. To accommodate for high-throughput screening, this method was scaled down from petri plates to 6-well plates. To set up the test, an agar plug was placed at the bottom of each well of the sterile 6-well plate. A single coupon was placed with a pair of sterile forceps at the center of the agar plug (on top) with the painted surface facing upwards. Fungal inoculums were prepared by mixing equal concentrations (1×10^6 cfu/ml) and equal volumes (depending on number of samples to be tested) of like growing organisms. For Flumetsulam+various IT synergy study, three pools of mixed fungi were prepared as the test inoculum. Cladosporium herbarum was mixed with Aureobasidium pullulans; Aspergillus niger was mixed with Penicillium funiculosum and Alternaria alternata was mixed with Trichoderma viride. For Diclosulam+various IT synergy study, all above fungi were mixed as a single pool. […] The total percent area covered was evaluated and recorded at the end of each week after the 2nd week and recorded in increments of 5%.
(§3) The SI is calculated based on […].

[2] = system: Gloeocapsa sp. and Oscillatoria sp. (Gs + Os); test: Algal efficacy testing, modified ASTM 5589, paint film (both studies); conditions: four weeks; for % inhibition: at the total conc given; for Total conc, ppm: concentration in paint chosen as minimum inhibitory concentration for SI
Protocol: as §1, §2
(§4) ASTM 5589 is a standard accelerated test method for determining resistance of various coatings (including paints) to algal defacement. To accommodate for high-throughput screening, this method was scaled down from petri plates to 6-well plates. A single coupon was placed with a pair of sterile forceps at the center of the agar plug (on top) with the painted surface facing upwards. Algal inoculums were prepared by mixing equal concentrations (1×10^6 cfu/ml) and equal volumes (depending on number of samples to be inoculated) of like growing organisms.
(§5) In Flumetsulam+various IT synergy study, three pool of mixed algae were prepared as the test inoculum, Gloeocapsa sp. and Oscillatoria sp. a mix of cyanobacteria grown on BG-11 media; Chlorella sp., Chlorella kessleri, and Nostoc commune are unicellular chlorphytes that were mixed and grown on Bold media; Trentepohlia aurea, Tretepohlia odorata, and Calotrix parientina are filamentous algae that were mixed and grown on Bold media.
(§6) In Diclosulam+various IT synergy study, only two pools of mixed algae were prepared; Gloeocapsa sp. and Oscillatoria sp. grown on BG-11 media and Chlorella sp., Chlorella kessleri, Nostoc commune, Trentepohlia aurea, Tretepohlia odorata, and Calotrix parientina grown on Bold media
(§7) Each well that contains a tested coupon was inoculated with 400 μl of organism mixture (1×10^6 cfu/ml) making sure that the whole surface (paint film as well as the agar surrounding it) was evenly covered. The plates were incubated at room temp (25° C.-26° C.) with cyclic exposure to light (OTT-Lite model # OTL4012P, 40 Watt, 26KLumen) and dark phases, for a period of four weeks. The total area covered was evaluated at the end of each week according to percent area covered in 5% increments.
as §3

[3] = system: Cp + To + Ta + Cs + Ck + Nc (algae grown on Bold media); test: Algal efficacy testing, modified ASTM 5589, paint film (Diclosulam study); conditions: four weeks; for Total conc, ppm: Diclosulam:DIMTS study, concentration in paint used for SI; for % inhibition: at the total conc given
Protocol: as §1, §2, §4, §6
Each well that contains a tested coupon was inoculated with 400 μl of organism mixture (1×10^6 cfu/ml) making sure that the whole surface (paint film as well as the agar surrounding it) was evenly covered. […] The total area covered was evaluated at the end of each week according to percent area covered in 5% increments.
as §3

[4] = system: Cladosporium herbarum mixed with Aureobasidium pullulans (ApCh); test: Fungal efficacy testing, modified ASTM 5590, paint film (Flumetsulam study); conditions: four weeks; for % inhibition: at the total conc given; for Total conc, ppm: concentration in paint chosen as minimum inhibitory concentration for SI, 30 C
Protocol: as §1, §2
(§8) ASTM 5590 is a standard accelerated test method for determining resistance of various coatings (including paints) to fungal defacement. To accommodate for high-throughput screening, this method was scaled down from petri plates to 6-well plates. To set up the test, an agar plug was placed at the bottom of each well of the sterile 6-well plate. A single coupon was placed with a pair of sterile forceps at the center of the agar plug (on top) with the painted surface facing upwards. Fungal inoculums were prepared by mixing equal concentrations (1×10^6 cfu/ml) and equal volumes (depending on number of samples to be tested) of like growing organisms. For Flumetsulam+various IT synergy study, three pools of mixed fungi were prepared as the test inoculum. Cladosporium herbarum was mixed with Aureobasidium pullulans; Aspergillus niger was mixed with Penicillium funiculosum and Alternaria alternata was mixed with Trichoderma viride. For Diclosulam+various IT synergy study, all above fungi were mixed as a single pool. Each well was inoculated with 400 μl of organism mixture (1×10^6 cfu/ml) making sure that the whole surface (paint film as well as the agar surrounding it) was evenly covered. The plates were incubated at 30° C. in presence of moisture, for a period of four weeks. The total percent area covered was evaluated and recorded at the end of each week after the 2nd week and recorded in increments of 5%.
as §3

[5] = system: Alternaria alternata mixed with Trichoderma viride (AaTv); test: as above; conditions: four weeks; for % inhibition: at the total conc given; for Total conc, ppm: concentration in paint chosen as minimum inhibitory concentration for SI, 30 C
Protocol: as §1, §2, §8, §3

[6] = system: Aspergillus niger mixed with Penicillium funiculosum (AnPf); test: as above; conditions: four weeks; for % inhibition: at the total conc given; for Total conc, ppm: concentration in paint chosen as minimum inhibitory concentration for SI, 30 C
Protocol: as §1, §2, §8, §3

[7] = system: Trentepohlia aurea, Tretepohlia odorata, and Calotrix parientina (Cp + To + Ta); test: Algal efficacy testing, modified ASTM 5589, paint film (Flumetsulam study); conditions: four weeks; for % inhibition: at the total conc given; for Total conc, ppm: concentration in paint chosen as minimum inhibitory concentration for SI, 25-26 C
Protocol: as §1, §2, §4, §5, §7, §3

[8] = system: Chlorella sp., Chlorella kessleri, and Nostoc commune (Cs + Ck + Nc); test: as above; conditions: four weeks; for % inhibition: at the total conc given; for Total conc, ppm: concentration in paint chosen as minimum inhibitory concentration for SI, 25-26 C
Protocol: as §1, §2, §4, §5, §7, §3

CCOc1nc(F)cc2nc(S(=O)(=O)Nc3c(Cl)cccc3Cl)nn12 [Diclosulam, N-(2,6-dichlorophenyl)-5-ethoxy-7-fluoro[1,2,4]triazolo[1,5-c]pyrimidine-2-sulfonamide] was tested. Which “Total conc, ppm” value [1] did it give?
The value was 3500 ppm.

And the “% inhibition” value [1]?
The value was 0%.

What about the “% inhibition” value ([2]; Diclosulam:DIMTS study) of the same compound?
The value was 85%.

What about the “Total conc, ppm” value ([2]; Diclosulam:DIMTS study) of the same compound?
The value was 875 ppm.

What about the “Total conc, ppm” value [3] of the same compound?
Its value is 437.5 ppm.

And the “% inhibition” value [3]?
The value was 100%.

With Cc1ccn2nc(S(=O)(=O)Nc3c(F)cccc3F)nc2n1 [Flumetsulam, N-(2,6-difluorophenyl)-5-methyl[1,2,4]triazolo[1,5-a]pyrimidine-2-sulfonamide] as the compound, how does the “% inhibition” value ([2]; Flumetsulam:DIMTS study) read?
The value was 80%.

And the “Total conc, ppm” value ([2]; Flumetsulam:DIMTS study)?
The value was 2625 ppm.

And the “% inhibition” value [4]?
Its value is 70%.

What about the “Total conc, ppm” value [4] of the same compound?
The value was 3500 ppm.

And the “% inhibition” value [5]?
The value was 70%.

What about the “Total conc, ppm” value [5] of the same compound?
The value was 3500 ppm.

And the “% inhibition” value [6]?
Its value is 40%.

What about the “Total conc, ppm” value [6] of the same compound?
Its value is 3500 ppm.

What about the “% inhibition” value [7] of the same compound?
The value was 95%.

What about the “Total conc, ppm” value [7] of the same compound?
The value was 3500 ppm.

And the “% inhibition” value [8]?
The value was 0%.

And the “Total conc, ppm” value [8]?
The value was 3500 ppm.

With Cc1ccc(S(=O)(=O)C(I)I)cc1 [DIMTS, diiodomethyl-p-tolylsulfone] as the compound, how does the “Total conc, ppm” value [1] read?
The value was 2500 ppm.

What about the “% inhibition” value [1] of the same compound?
Its value is 0%.

And the “% inhibition” value ([2]; Diclosulam:DIMTS study)?
The value was 85%.

And the “Total conc, ppm” value ([2]; Diclosulam:DIMTS study)?
The value was 2500 ppm.

And the “% inhibition” value ([2]; Flumetsulam:DIMTS study)?
Its value is 85%.

And the “Total conc, ppm” value ([2]; Flumetsulam:DIMTS study)?
Its value is 625 ppm.

What about the “% inhibition” value [4] of the same compound?
The value was 100%.

And the “Total conc, ppm” value [4]?
Its value is 625 ppm.

What about the “% inhibition” value [5] of the same compound?
The value was 70%.

And the “Total conc, ppm” value [5]?
The value was 2500 ppm.

And the “% inhibition” value [6]?
Its value is 100%.

What about the “Total conc, ppm” value [6] of the same compound?
The value was 625 ppm.

And the “% inhibition” value [7]?
The value was 100%.

And the “Total conc, ppm” value [7]?
Its value is 1250 ppm.

And the “% inhibition” value [8]?
The value was 100%.

What about the “Total conc, ppm” value [8] of the same compound?
The value was 1250 ppm.

And the “Total conc, ppm” value [3]?
Its value is 625 ppm.

And the “% inhibition” value [3]?
Its value is 100%.
